Here are results for one compound from patent EP2545917B1, “NOVEL EP4 AGONIST” (Kaken Pharmaceutical Co., Ltd., priority 2010, dated 2011).

The structures appear in SMILES notation. pEC50, pKi: −log10 of the molar value.

In data set [1] the test system is dextran sodium sulfate-induced colitis. As to the kind of experiment: Dextran sodium sulfate-induced colitis model in mice (C57BL/6). Conditions: C57BL/6 mice, DSS, oral 0.3 and 1 mg/kg once a day. In kind it is in vivo. Here is the method: Female C57BL/6 mice (6 weeks old, Japan SLC) were purchased, acclimated for 1 week and used for the study. Except the normal group, the mice were allowed to freely drink a 3 or 2 w/v% DSS (MP Biochemicals, Lot No. 5653H and 5464H, respectively) solution for 1 week to induce colitis. BPS at a dose of 0.3 mg/kg and compound F at doses of 0.3 and 1 mg/kg were orally administered once a day, daily, from the start day of DSS drinking (day 0) to one day before autopsy (day 9). To the control group was orally administered a solvent (1 vol% ethanol solution) at 10 mL/kg in the same manner. The consistency of the stool was graded from score 0 to 4, with normal (0), partly loose stool (1), loose stool (2) and diarrhea (4). The blood feces was also graded from score 0 to 4, with normal (0), partly blood feces (1), blood feces (2) and blood feces plus proctorrhagia (4). The sum of both grades was defined as the stool score (maximum 8). Furthermore, the length of the large intestine was measured in the same manner as in Example 23. Six to 10 animals were used for each group, and the results are shown in average ± standard deviation.

For data set [2], the target named is T1, Human EP4 (Homo sapiens, UniProt P35408).
T1 construct: expressed in transfected cells; host or cells: COS-7
As to the kind of experiment: EP4 agonist activity, CRE-LUC reporter gene in transfected COS-7 cells. The class given is cell-based. Here is the method: In brief, human EP4 gene and CRE-LUC reporter gene were transfected into COS-7 cells. The cells were treated with a test compound one day later, and incubated for 3 hr. The cells were washed, a luminescence substrate was added, and the luminescence intensity was measured for the agonist activity.
In general terms: A reporter such as luciferase makes a cellular process visible.

In a further data set the test system is intraocular pressure. As to the kind of experiment: Effect on intraocular pressure in rabbits. The class given is in vivo, Japanese white rabbits. Conditions: 0.01 w/v% solution, 50 µL/eye. On the procedure: Japanese white rabbits (male, 10 weeks old, BIOTEC Co., Ltd.) were purchased, acclimated for 1 week and used for the study. Compound F solution (0.01 w/v%) was instilled once into the cornea of both eyes at a volume of 50 µL/eye with a micropipette. The intraocular pressure of the right eye was measured and the local irritative effect on the eye was evaluated using the left eye. After surface anesthesia with oxybupranol (Benoxil 0.4% instillation solution), the intraocular pressure was measured before ocular instillation ) and 1, 2, 3, 4, 6 and 8 hr after the instillation using a pneumatonometer (Alcon Ltd.). In addition, the local irritative effect on the eye was evaluated by scoring conjunctival congestion, conjunctival edema, cornea opacity, iris congestion, excretion and eye closure performance. For the evaluation, phosphate buffer was used for the solvent control group, and isopropyl unoprostone (Rescula eye drops, Santen Pharmaceutical Co., Ltd.) was used for comparison. Six animals were used for each group and the results were expressed as average.

The next data set addresses T2, Human EP3 (Homo sapiens, UniProt P43115).
T2 construct: expressed in transfected cells; host or cells: COS-7
T2 sequence (P43115 1-390): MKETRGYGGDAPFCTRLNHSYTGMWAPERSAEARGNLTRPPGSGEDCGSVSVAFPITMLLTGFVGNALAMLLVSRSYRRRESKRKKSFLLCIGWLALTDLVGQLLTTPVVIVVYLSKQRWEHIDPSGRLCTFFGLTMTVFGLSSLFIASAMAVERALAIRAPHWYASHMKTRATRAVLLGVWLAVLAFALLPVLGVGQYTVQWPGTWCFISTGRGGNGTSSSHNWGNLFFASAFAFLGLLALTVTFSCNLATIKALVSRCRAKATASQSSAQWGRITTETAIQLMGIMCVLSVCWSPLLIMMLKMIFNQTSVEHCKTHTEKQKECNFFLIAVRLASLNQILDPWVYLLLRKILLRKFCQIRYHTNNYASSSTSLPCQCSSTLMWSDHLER
As to the kind of experiment: Receptor affinity, tritium-labeled PGE2 binding to membranes of transfected COS-7 cells. Here is the method:
(§1) COS-7 cells were transfected with the genes of mouse EP4, human EP1-4 or human IP to overexpress the receptor and then the cell membranes were collected. […] The dissociation constant Kd value was obtained and inhibition constant Ki value of each test compound was determined in a conventional method.

In data set [3] the target is T1, Human EP4. The description is as above. Here is the method: as §1
Data set [4] can be described thus: In vitro metabolic stability: β-oxidation reaction in rat liver mitochondria fraction. In kind it is in vitro ADME. Conditions: parent compound after NADPH-independent β-oxidation reaction, 37°C, 30 min, tested as isomer mixtures, average ± SD of 3 experiments. On the procedure:
A mixture of the compound F and compound J of the present invention described in Table 1 (F:J = 52:41, synthesized in Example 14), and a mixture of compounds wherein the tetrazole groups at C-1 of compound F and compound J are respectively substituted by carboxylic acid (referred to as carboxylate form, F:J = 54:34, synthesized in Example 15) were tested.
First, a mitochondria fraction was prepared from the rat liver according to the following Reference A. Then, in reference to the method of […] et al. described in the following References B and C, an NADPH-independent β oxidation reaction was studied. The reaction was carried out at 37°C for 30 min, and stopped with a methanol solution containing a suitable internal standard substance. Each compound was quantified by the internal standard method using a high performance liquid chromatography mass spectrometry apparatus (LC-MS/MS). The compound residual ratio after metabolic reaction of compounds F, J and each carboxylate form thereof in rat mitochondria fraction is shown in the following Table 2 in average ± standard deviation of 3 experiments. Table 2 Residual Ratio of Parent Compound after β-Oxidation Reaction

The subject of data set [5] is indomethacin-induced small intestinal injury. As to the kind of experiment: Indomethacin-induced small intestinal injury model in rats. The class given is in vivo, SD rats. On the procedure:
Male SD rats, 7 weeks old (Charles River) were purchased, acclimated for 1 week and used for the study. The rats were grouped based on the body weight and subcutaneously ) administered with indomethacin (SIGMA, Lot No. 19F0018) at 15 mg/5 mL/kg to all groups to induce small intestinal injury. Compound F at doses of 0.01, 0.1 and 1 mg/kg was orally administered at a volume of 5 mL/kg 30 min before and 6 hr after the subcutaneous administration of indomethacin. To the control group was orally administered a solvent (1 vol% ethanol solution) at 5 mL/kg in the same manner. Eight animals were used for each group.
The rats were intravenously administered with 2 mL of 10 mg/mL Evans blue solution under ether anesthesia 23.5 hr after the indomethacin administration. After 30 min, the rats were bled to death from the abdominal aorta and caudal vena cava under ether anesthesia and the small intestine was isolated. The isolated small intestine was filled with an adequate amount (about 35 mL) of 2 vol% neutral formalin solution, and fixed for about 15 min. Thereafter, the total small intestine was incised along the mesenteric attachment site, and extended on a vinyl chloride board. The length and width of each ulcer were measured under a stereomicroscope, the area was calculated, and the sum thereof was taken as the total ulcer area.

T1 sequence (P35408 whole entry): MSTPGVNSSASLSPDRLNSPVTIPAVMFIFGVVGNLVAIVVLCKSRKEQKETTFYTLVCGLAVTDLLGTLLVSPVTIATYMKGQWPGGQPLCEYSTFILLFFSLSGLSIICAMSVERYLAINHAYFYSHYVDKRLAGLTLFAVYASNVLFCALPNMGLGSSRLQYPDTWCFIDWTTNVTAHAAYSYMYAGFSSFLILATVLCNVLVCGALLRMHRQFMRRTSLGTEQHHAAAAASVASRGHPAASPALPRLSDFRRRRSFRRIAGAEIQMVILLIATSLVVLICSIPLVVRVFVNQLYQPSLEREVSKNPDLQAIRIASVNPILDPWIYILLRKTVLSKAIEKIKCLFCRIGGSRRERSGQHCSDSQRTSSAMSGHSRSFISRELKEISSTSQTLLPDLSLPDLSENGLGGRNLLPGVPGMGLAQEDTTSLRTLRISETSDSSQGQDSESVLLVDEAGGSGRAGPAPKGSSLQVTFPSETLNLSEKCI

Usually pEC50 stands for the EC50 on a negative log10 scale, so that one unit is a factor of ten. The term pKi denotes −log10 of the Ki, conventionally taken in molar units. In the case of `Cc1cccc([C@@H](C)[C@H](O)/C=C/[C@@H]2[C@@H]3[C@H](C[C@H]2O)O/C(=C\CCCc2nnn[nH]2)C3(F)F)c1` [Compound F, 4-[(Z)-(1S,5R,6R,7R)-6-[(1E,3R,4R)-3-hydroxy-4-(m-tolyl)-1-pentenyl]-7-hydroxy-2-oxa-4,4-difluoro-bicyclo[3.3.0]octan-3-ylidene]-1-(tetrazol-5-yl)butane], the “effect on the onset of colitis (stool score, colon shortening)” value in data set [1] was “superior prophylactic effect on the onset of colitis”. On Human EP4 [2], this compound had a pEC50 of 8.48. The figures for the “decrease in intraocular pressure” value in the data set on intraocular pressure (1 hr after the instillation), in the data set with intraocular pressure (2 hr after the instillation) and in the data set with intraocular pressure (6 hr after the instillation) were 6.9 mmHg, 9.3 mmHg and 6.6 mmHg, respectively. In addition, the values for the pKi at Human EP3 and at Human EP4 [3] were 6.39 and 8.18, respectively. The “affinity for binding to human EP4 higher than that to human IP” value at Human EP4 [3] (ratio of Ki values) is ≥ 100 fold. Further, on Human EP4 [3] (ratio of Ki values), the “affinity for binding to human EP4 higher than those to human EP1, EP2 and EP3 receptors” value is given as ≥ 60 fold. The Residual ratio in data set [4] is reported as 91.6±6.8%. The “effect on total ulcer area in the small intestine” value in data set [5] (oral 1 mg/kg 30 min before and 6 hr after indomethacin) was “completely reduced the area”; in data set [5] (oral 0.01, 0.1 and 1 mg/kg 30 min before and 6 hr after indomethacin) it was “significantly reduced the ulcer area in a dose-dependent manner from a dose of 0.1 mg/kg administration”.
